Reference: patent publication US20190101539A1, “METABOLOMIC BASED BIOMARKERS FOR COLON CANCER DETECTION” (UNIVERSITY OF SOUTHERN CALIFORNIA, priority 2015, published 2019)
Blank lines part the entries; values can stand above or below the compound they belong to.

Columns and labels:
[1] = Evaluation of stabilizing agents for FOCM metabolites; format: physicochemical; conditions: 0.5% ascorbic acid, compared with other stabilizing agents
Source text: A major challenge with the FOCM intermediates during storage and analysis is their poor stability. The metabolites may be unstable through environment exposures such as heat, light and/or oxygen, thereby posing great challenge to determine the actual concentration of these metabolites at the time of collection. These FOCM intermediates make the metabolomics-based assay a very powerful tool to a more accurate quantification. The instability of these vitamins pose a great challenge due to their poor stability in the presence of metallic ions, oxidative species and light which catalyze most of the degradation reactions. Most of the vitamin B and folate metabolites degrade due as a consequence of photooxidation reactions which becomes a challenge for assay development necessitating the provision of the most suitable conditions for storage and processing of the plasma samples in order to produce a highly sensitive and reliable assay method. In order to address the instability issues during sample processing, the analysis will be conducted on at 4° C. using black eppendorf tubes. […] Consistent metabolites extraction is achieved using protein precipitation approach followed by the supernatant evaporated to dryness under nitrogen. […]

[2] = Degradation kinetics of FOCM metabolites at storage temperatures, Arrhenius model; format: physicochemical; set-up: Ln (K) / Calculated Ln (K) / Calculated K: unit not given here; conditions: for Degradation constant, K: first order, days 0-42
Experimental: This will further enhance the clinical prediction ability. The stability of these plasma vitamin B and folate metabolites were studied to validate the reliability of the assay and the time-dependent effect on the concentration of the analytes in patient samples. Using freshly made samples and assessing their degradation over time, we have established an Arrhenius models that will allow the team to extrapolate the metabolite level over time.
The stability of these metabolites were assessed using accelerated stress conditions which involves determining degradation rates of analytes through monitoring changes in time of their concentration in solution at several predetermined storage temperatures and then analyzing the results in terms of the Arrhenius equation: […]
For a valid Arrhenius model to be developed, a linear plot determining the degradation rate of analyte at given storage temperatures against reciprocals of these temperatures is needed. The pre-exponential factor A, which may be obtained by extrapolating the straight line to zero value of the temperature reciprocal, appears to be affected by factors such as exposure to pollution^7 and light^8, relative humidity during the ageing, and the analytes. The activation energy, directly proportional to the slope of the straight line, represents a measure of sensitivity of the degradation rate of the studied property to temperature changes. The degradation rate of the analytes at ambient conditions can be estimated by extrapolating the Arrhenius plot for the analyte concentration to storage temperature. Combined with a kinetic equation describing changes of the concentration with time, this rate may then be used to estimate the life-expectancy of the analytes.
In order to estimate the degradation rate constant, k, at the storage temperature of the plasma samples (which is usually −80° C.), a degradation experiment was conducted for FOCM metabolites at ambient temperatures of 37° C., 25° C., 4° C. and −20° C. […] All degradation curves were assumed to be first order. All experimental samples were stored and quantified at days 0, 3, 7, 14, 21, 28 and 42 using the developed LCMS assay. The results below (for 4-pyridoxic acid) are an example of the data obtained for each of the FOCM metabolites.

[3] = −80 °C, extrapolated from Arrhenius model

Structure (SMILES): O=C1O[C@H]([C@@H](O)CO)C(O)=C1O [ascorbic acid]
Stabilization of FOCM metabolites from oxidation [1]: more effective in stabilizing the FOCM metabolites from oxidation

Ln (K) ([2]; 4 °C): −4.164 | Calculated K ([2]; 4 °C, Arrhenius model): 0.014 | Calculated Ln (K) ([2]; 4 °C, Arrhenius model): −4.302 | Degradation constant, K ([2]; 4 °C): 0.016 | Ln (K) ([2]; 25 °C): −4.019 | Calculated K ([2]; 25 °C, Arrhenius model): 0.019 | Calculated Ln (K) ([2]; 25 °C, Arrhenius model): −3.977 | Degradation constant, K ([2]; 25 °C): 0.018 | Ln (K) ([2]; 37 °C): −3.841 | Calculated K ([2]; 37 °C, Arrhenius model): 0.022 | Calculated Ln (K) ([2]; 37 °C, Arrhenius model): −3.810 | Degradation constant, K ([2]; 37 °C): 0.021 | A, Arrhenius pre-exponential factor ([2]; Arrhenius plot): 1.37 | Ln(A) ([2]; Arrhenius plot intercept): 0.3183 | Ln (K) ([2]; −20 °C): −4.806 | Calculated K ([2]; −20 °C, Arrhenius model): 0.009 | Calculated Ln (K) ([2]; −20 °C, Arrhenius model): −4.741 | Degradation constant, K ([2]; −20 °C): 0.008 | Calculated K [2, 3]: 0.002 | Calculated Ln (K) [2, 3]: −6.313 | E, activation energy ([2]; −slope*R of Arrhenius plot): 10.6 KJmol^−1
Structure (SMILES): Cc1ncc(CO)c(C(=O)O)c1O [4-Pyridoxic acid]
